Data from US20040019018A1, “Rigid pyrrolidone modulators of pkc” (priority 2003, published 2004).

Key:
whole brain PKC = assay: [3H]PDBu displacement from unresolved mixture of PKC isozymes from whole brain extracts; format: binding; conditions: [3H]PDBu competition
Method: The ability of representative compounds of the invention to bind specific isozymes of PKC was determined using an assay (Example 13) in which displacement of [20-^3H]phorbol -12,13-dibutyrate ([^3H]PDBu) from either recombinant PKC isozymes prepared in a Baculovirus system, or unresolved mixture of isozymes of PKC isolated from whole brain extracts, was used. These procedures are described below. As described in detail below, preferred compounds for neurological effects are those in which affinity for α, β and γ isozymes is the greatest (i.e. those having the lowest Ki) relative to other isozymes as such as the δ- and ε-isozymes shown in Table 1. […]
Analysis of [20-^3H]phorbol 12,13-dibutyrate binding to PKC. […] Phosphatidylserine and bovine […] were obtained from Sigma Chemical Co. Binding was determined in an incubation volume of 250 μl, containing [^3H]PDBu, PKC, 0.05 M Tris-Cl, pH 7.4, 100 μg/ml phosphatidylserine, various concentrations of the ligand being assayed for competition of [^3H]PDBu binding, and bovine […] at 1 mg/ml. […] [^3H]PDBu was used at a concentration twice the Kd previously determined for the specific receptor. […]
Specific binding represents the difference between total binding and the non-specific binding, where the latter value was calculated from the partition coefficient and the measured free [^3H]PDBu concentration in each tube. […]

PKC catalytic subunit = assay: Translocation of PKC catalytic subunit to the membrane fraction in human fibroblasts (Western blot); format: cell-based; conditions: 15 min treatment, preliminary results
Method: A growing list of evidence implicated that protein kinase C (PKC) activation can increase the rate of the non-amyloidogenic, i.e. α-secretase processing in vitro.
Human fibroblasts were grown to confluence in 100 mm tissue culture dishes. On the day of the experiment, cells were rinsed twice with serum-free Dulbecco's modified Eagle's medium (DMEM) and incubated in the same medium for 2 hours. Cells were treated with the drugs above, or DMSO vehicle as control, for 15 min. The cells were then rinsed twice with ice-cold phosphate buffered saline (PBS), scraped in PBS, and collected by centrifugation. The pellets were suspended in homogenization buffer containing: 20 mM Tris-HCl, pH 7.5, 2 mM EDTA, 2 mM EGTA, 5 mM DTT, 0.32 M sucrose, 2 mM PMSF, […] aprotinin, and 20 µg/ml leupeptin. Homogenates were immersed in liquid nitrogen thawed, and centrifuged at 12,000 g for 20 min, and supernatants were used as the cytosolic fraction (C). The pellets were homogenized in the same buffer containing 1.0% Triton X-100, incubated on ice for 45 min, and centrifuged at 12,000 g for 30 min and the supernatants were used as the membrane fractions (M). After protein determination, equal amounts of proteins (approx. […]) were mixed with electrophoresis buffer, boiled for 5 min, and separated on 8% SDS-PAGE, and electrophoretically transferred to PVDF membranes. […]

soluble APPα (sAPPα) = assay: Secretion of soluble APPα from human fibroblasts (Example 15); format: cell-based; conditions: 10-20 μM, 2 hours
Method: Human fibroblasts from Alzheimer's patients (AD, cell line AG06848) or age-matched controls (AC, cell line AG07141) were grown to near confluence in DMEM containing 10% fetal bovine serum. On the day of the experiments, cells were rinsed twice with DMEM with no serum and incubated with the same […] for 2 hours at 37° C., 5% CO2. Cells were incubated for 2 additional hours with different concentrations of the drugs or equal volume of DMSO vehicle as control. The medium was collected and centrifuged at 1000 rpm to remove cell debris. Proteins were precipitated by addition of equal volume of 20% ice-cold tricholoroacetic acid (TCA) and incubation on ice for 60 minutes. The protein pellets were washed with ice-cold acetone and centrifuged for 30 minutes at 20,000 g for 30 minutes and dried overnight. Pellets were dissolved in electrophoresis buffer and proteins corresponding to the same concentration of protein were separated by SDS-PAGE and transferred to PVDF membranes according to the manufacturer's instructions. After electrophoresis, the membranes were blocked with Blotto and incubated overnight with a monoclonal antibody 6E10 (Synetek) that recognizes the APPα. After incubation with the secondary antibody, alkaline phosphatase anti-mouse IgG (Jackson's Laboratories), the membranes were developed using an alkaline phosphatase kit (BioRad) as per the manufacturer's instructions.

SMILES	Ki (whole brain PKC) [µM]	translocation of PKC catalytic subunit from the cytosolic to the membrane fractions (activation) (PKC catalytic subunit)	secretion of soluble APPα (sAPPα) (soluble APPα (sAPPα))
CCCCCCCCC#Cc1ccc2c(c1)C(C)(C(C)C)C1C(=O)NC(CO)C21 [Compound 1, (3S, 8R, 9S, 10S)-6-(dec-1′-ynyl)-3-hydroxymethyl-8-isopropyl-8-methyl-3,3a,8,8a-tetrahydro-2H-2-aza-cyclopenta[a]inden-1-one]	> 10	able to cause the translocation	increased the secretion of soluble APPα (sAPPα) significantly
CCCCCCCCCCCC(=O)Oc1ccc2c(c1)[C@](C)(C(C)C)[C@H]1C(=O)N[C@H](CO)[C@@H]21 [Compound 2, (3S, 8R, 9S, 10S)-6-dodecanoyloxyl-3-hydroxymethyl-8-isopropyl-8-methyl-3,3a,8,8a-tetrahydro-2H -2-aza-cyclopenta[a]inden-1-one]	> 10	–	–
